By EC50 is commonly meant the concentration that produces a half-maximal response.

Consider 67 compounds from patent US10183021B2, “sGC stimulators” (Ironwood Pharmaceuticals, Inc., priority 2013, dated 2019).

The experiment deals with soluble guanylate cyclase (sGC) (Homo sapiens (Human), UniProt Q02108+Q02153). Kind of experiment: sGC-HEK-cGMP assay, new protocol with DETA-NONOate, LC/MS detection (Example 2C). The conditions noted are these: read-out: Absolute EC50 (uM) - binned. In kind it is cell-based.
Chain of soluble guanylate cyclase (sGC) (Q02153 whole entry): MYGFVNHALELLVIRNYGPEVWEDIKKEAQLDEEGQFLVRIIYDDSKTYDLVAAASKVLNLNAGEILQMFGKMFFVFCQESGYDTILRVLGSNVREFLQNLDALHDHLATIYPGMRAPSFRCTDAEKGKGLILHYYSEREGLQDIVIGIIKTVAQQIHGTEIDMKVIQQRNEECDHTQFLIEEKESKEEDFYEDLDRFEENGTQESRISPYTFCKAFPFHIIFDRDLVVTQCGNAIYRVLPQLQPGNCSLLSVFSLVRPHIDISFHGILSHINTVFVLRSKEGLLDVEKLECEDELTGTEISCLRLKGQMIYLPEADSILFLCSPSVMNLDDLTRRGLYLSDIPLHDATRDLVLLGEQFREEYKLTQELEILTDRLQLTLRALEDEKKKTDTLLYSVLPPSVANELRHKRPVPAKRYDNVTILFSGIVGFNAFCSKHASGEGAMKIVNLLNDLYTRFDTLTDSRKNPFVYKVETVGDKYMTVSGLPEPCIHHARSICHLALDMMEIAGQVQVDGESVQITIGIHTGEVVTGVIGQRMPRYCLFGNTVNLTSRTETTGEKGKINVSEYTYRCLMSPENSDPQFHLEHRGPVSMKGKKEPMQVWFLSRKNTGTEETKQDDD
Chain of soluble guanylate cyclase (sGC) (Q02108 whole entry): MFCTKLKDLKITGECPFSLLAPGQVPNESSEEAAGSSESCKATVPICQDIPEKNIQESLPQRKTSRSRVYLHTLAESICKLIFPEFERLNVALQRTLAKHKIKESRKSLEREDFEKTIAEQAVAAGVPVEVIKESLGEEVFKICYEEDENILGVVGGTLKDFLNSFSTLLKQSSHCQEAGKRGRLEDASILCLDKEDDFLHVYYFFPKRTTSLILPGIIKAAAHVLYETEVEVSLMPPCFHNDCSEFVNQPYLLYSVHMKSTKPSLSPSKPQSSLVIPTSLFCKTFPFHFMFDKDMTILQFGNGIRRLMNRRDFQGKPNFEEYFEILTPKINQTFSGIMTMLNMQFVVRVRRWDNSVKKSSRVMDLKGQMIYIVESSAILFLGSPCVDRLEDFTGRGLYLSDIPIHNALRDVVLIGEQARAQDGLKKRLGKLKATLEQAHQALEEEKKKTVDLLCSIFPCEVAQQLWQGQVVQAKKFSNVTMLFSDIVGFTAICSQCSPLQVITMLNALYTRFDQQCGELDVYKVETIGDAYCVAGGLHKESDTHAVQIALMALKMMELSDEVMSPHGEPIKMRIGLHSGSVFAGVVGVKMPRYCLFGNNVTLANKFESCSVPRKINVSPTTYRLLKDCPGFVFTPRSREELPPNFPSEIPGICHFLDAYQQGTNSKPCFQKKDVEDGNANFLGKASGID

Read-outs that look alike come from different tables or passages of the source. Where only a bound is given, the exact number is not on record here.

On to `CC(=O)Nc1ccnc(-c2cc(-c3ccon3)n(Cc3ccccc3F)n2)n1` [Compound I-524], for which the EC50 is over 1 µM.
On the same count and under the same terms, the value for `O=C(Nc1ccnc(-c2cc(-c3ccon3)n(Cc3ccccc3F)n2)n1)C1(OCc2ccccc2)CCOCC1` [Compound I-525] was over 1 µM.
Still for that read-out and setting: the value for `CC1(S(C)(=O)=O)CCN(c2nc(-c3cc(-c4ccon4)n(Cc4ccccc4F)n3)ncc2F)C1=O` (stereo not shown) [Compound I-526] was over 1 µM.
As for `CC(CCO)(C(=O)Nc1nc(-c2cc(-c3ccon3)n(Cc3ccccc3F)n2)ncc1F)S(C)(=O)=O` (stereo not shown) [Compound I-527], the EC50 lay in the range of 0.101 to 1 µM.
The same measure, in the same setting: the value for `COCC(=O)Nc1ccnc(-c2cc(-c3ccon3)n(Cc3ccccc3F)n2)n1` [Compound I-528] was over 1 µM; that for `CN(CC(O)(C(F)(F)F)C(F)(F)F)c1nc(-c2cc(-c3ccon3)n(Cc3ccccc3F)n2)ncc1F` [Compound I-529] was over 1 µM; that for `NC(=O)[C@@](O)(CNc1nc(-c2cc(-c3ccon3)n(Cc3ccccc3F)n2)ncc1F)C(F)(F)F` [Compound I-530] was 0.101 to 1 µM.
On the same count and under the same terms, the value for `NC(=O)[C@](O)(CNc1nc(-c2cc(-c3ccon3)n(Cc3ccccc3F)n2)ncc1F)C(F)(F)F` [Compound I-531] was under 0.1 µM.
Still for that read-out and setting: the value for `O=C(Nc1ccnc(-c2cc(-c3ccon3)n(Cc3ccccc3F)n2)n1)c1cocn1` [Compound I-532] was over 1 µM; that for `O=C1CCC(=O)N1c1nc(-c2cc(-c3ccon3)n(Cc3ccccc3F)n2)ncc1F` [Compound I-533] was 0.101 to 1 µM; that for `NC(=O)C1CCC(=O)N1c1nc(-c2cc(-c3ccon3)n(Cc3ccccc3F)n2)ncc1F` (stereo not shown) [Compound I-534] was over 1 µM.
With `CC(=O)NCC(=O)Nc1ccnc(-c2cc(-c3ccon3)n(Cc3ccccc3F)n2)n1` [Compound I-535], the EC50 fell in the range of 0.101 to 1 µM.
Consider `CC(C)[C@@H](Nc1nc(-c2cc(-c3ccon3)n(Cc3ccccc3F)n2)ncc1F)C(N)=O` [Compound I-536], for which the EC50 is under 0.1 µM.
On the same count and under the same terms, the value for `CC(C)[C@H](Nc1nc(-c2cc(-c3ccon3)n(Cc3ccccc3F)n2)ncc1F)C(N)=O` [Compound I-537] was under 0.1 µM; that for `NC(=O)C1(Nc2nc(-c3cc(-c4ccon4)n(Cc4ccccc4F)n3)ncc2F)CC1` [Compound I-538] was under 0.1 µM; that for `O=S(=O)(CCO)Nc1ccnc(-c2cc(-c3ccon3)n(Cc3ccccc3F)n2)n1` [Compound I-539] was over 1 µM.
On the same count and under the same terms, the value for `NC(=O)C(Nc1nc(-c2cc(-c3ccon3)n(Cc3ccccc3F)n2)ncc1F)C(F)(F)F` (stereo not shown) [Compound I-540] was 0.101 to 1 µM.
Consider `COC(=O)Nc1nc(-c2cc(-c3ccon3)n(Cc3ccccc3F)n2)ncc1[N+](=O)[O-]` [Compound I-541], for which the EC50 is over 1 µM.
Still for that read-out and setting: the value for `COC(=O)Nc1nc(-c2cc(-c3ccon3)n(Cc3ccccc3F)n2)ncc1N` [Compound I-542] was 0.101 to 1 µM.
The same measure, in the same setting: the value for `CS(=O)(=O)NCC(=O)Nc1ccnc(-c2cc(-c3ccon3)n(Cc3ccccc3F)n2)n1` [Compound I-543] was 0.101 to 1 µM; that for `CS(=O)(=O)NCCC(Nc1nc(-c2cc(-c3ccon3)n(Cc3ccccc3F)n2)ncc1F)C(F)(F)F` (stereo not shown) [Compound I-544] was under 0.1 µM.
In the case of `CS(=O)(=O)C1(CNc2nc(-c3cc(-c4ccon4)n(Cc4ccccc4F)n3)ncc2F)CC1` [Compound I-545], the EC50 is under 0.1 µM.
The same measure, in the same setting: the value for `CS(=O)(=O)NC(=O)CNc1nc(-c2cc(-c3ccon3)n(Cc3ccccc3F)n2)ncc1F` [Compound I-546] was over 1 µM; that for `COCCC(=O)Nc1ccnc(-c2cc(-c3ccon3)n(Cc3ccccc3F)n2)n1` [Compound I-547] was 0.101 to 1 µM.
With `Cc1ccc(S(=O)(=O)NC(C)C(=O)Nc2ccnc(-c3cc(-c4ccon4)n(Cc4ccccc4F)n3)n2)cc1` (stereo not shown) [Compound I-548], the EC50 was over 1 µM.
Same read-out and setting: the value for `O=C(Nc1ccnc(-c2cc(-c3ccon3)n(Cc3ccccc3F)n2)n1)c1cscn1` [Compound I-549] was over 1 µM; that for `O=C(Nc1ccnc(-c2cc(-c3ccon3)n(Cc3ccccc3F)n2)n1)c1ccc[nH]1` [Compound I-550] was over 1 µM; that for `N#CC1(C(=O)Nc2ccnc(-c3cc(-c4ccon4)n(Cc4ccccc4F)n3)n2)CC1` [Compound I-551] was over 1 µM.
Same read-out and setting: the value for `O=C(Nc1ccnc(-c2cc(-c3ccon3)n(Cc3ccccc3F)n2)n1)c1cncs1` [Compound I-552] was over 1 µM; that for `O=C(Nc1ccnc(-c2cc(-c3ccon3)n(Cc3ccccc3F)n2)n1)c1cccc(=O)[nH]1` [Compound I-553] was over 1 µM.
Same read-out and setting: the value for `COc1cc(C(=O)Nc2ccnc(-c3cc(-c4ccon4)n(Cc4ccccc4F)n3)n2)on1` [Compound I-554] was over 1 µM.
Regarding `O=C(Nc1ccnc(-c2cc(-c3ccon3)n(Cc3ccccc3F)n2)n1)c1ccncn1` [Compound I-555], the EC50 is over 1 µM.
On the same count and under the same terms, the value for `O=C(Nc1ccnc(-c2cc(-c3ccon3)n(Cc3ccccc3F)n2)n1)c1cnco1` [Compound I-556] was over 1 µM.
In the case of `O=C(Nc1ccnc(-c2cc(-c3ccon3)n(Cc3ccccc3F)n2)n1)c1cocn1` [Compound I-557], the EC50 (HEK293 cells, 10 μM DETA-NONOate, LC/MS detection, concentration eliciting 50% of high control response (30 μM I-329)) was over 1 µM.
As to `O=C(Nc1ccnc(-c2cc(-c3ccon3)n(Cc3ccccc3F)n2)n1)C1CC1` [Compound I-558], the EC50 lay within 0.101 to 1 µM.
Same read-out and setting: the value for `CO[C@H](C(=O)Nc1ccnc(-c2cc(-c3ccon3)n(Cc3ccccc3F)n2)n1)c1ccccc1` [Compound I-559] was 0.101 to 1 µM; that for `O=C(Nc1ccnc(-c2cc(-c3ccon3)n(Cc3ccccc3F)n2)n1)c1ccco1` [Compound I-560] was over 1 µM; that for `O=C(Nc1ccnc(-c2cc(-c3ccon3)n(Cc3ccccc3F)n2)n1)c1cccs1` [Compound I-561] was over 1 µM.
With `CCOCC(=O)Nc1ccnc(-c2cc(-c3ccon3)n(Cc3ccccc3F)n2)n1` [Compound I-562], the EC50 lay within 0.101 to 1 µM.
Still for that read-out and setting: the value for `CS(=O)(=O)CC(=O)Nc1ccnc(-c2cc(-c3ccon3)n(Cc3ccccc3F)n2)n1` [Compound I-563] was over 1 µM; that for `O=C(Nc1ccnc(-c2cc(-c3ccon3)n(Cc3ccccc3F)n2)n1)c1cc(C2CC2)n[nH]1` [Compound I-564] was over 1 µM; that for `CC(=O)OC(C(=O)Nc1ccnc(-c2cc(-c3ccon3)n(Cc3ccccc3F)n2)n1)c1ccccc1` (stereo not shown) [Compound I-565] was 0.101 to 1 µM.
Same read-out and setting: the value for `O=C(CO)N(CC(F)(F)F)c1nc(-c2cc(-c3ccon3)n(Cc3ccccc3F)n2)ncc1F` [Compound I-566] was 0.101 to 1 µM; that for `Fc1ccccc1Cn1nc(-c2ncc(F)c(NCC3(c4ncc[nH]4)CC3)n2)cc1-c1ccon1` [Compound I-567] was over 1 µM.
Regarding `COC(=O)NCC(Nc1nc(-c2cc(-c3ccon3)n(Cc3ccccc3F)n2)ncc1F)C(F)(F)F` (stereo not shown) [Compound I-568], the EC50 is under 0.1 µM.
On the same count and under the same terms, the value for `CC1(C(=O)Nc2ccnc(-c3cc(-c4ccon4)n(Cc4ccccc4F)n3)n2)CC1` [Compound I-569] was over 1 µM.
On the same count and under the same terms, the value for `O=C(Nc1ccnc(-c2cc(-c3ccon3)n(Cc3ccccc3F)n2)n1)C1CCCO1` (stereo not shown) [Compound I-570] was 0.101 to 1 µM.
Take `Cc1cn(CC(=O)Nc2ccnc(-c3cc(-c4ccon4)n(Cc4ccccc4F)n3)n2)c(=O)[nH]c1=O` [Compound I-571]: the concentration for a half-maximal effect (EC50) is over 1 µM.
Consider `COC(C(=O)Nc1ccnc(-c2cc(-c3ccon3)n(Cc3ccccc3F)n2)n1)(c1ccccc1)C(F)(F)F` (stereo not shown) [Compound I-572], for which the EC50 is over 1 µM.
The same measure, in the same setting: the value for `CS(=O)(=O)CCC(=O)Nc1ccnc(-c2cc(-c3ccon3)n(Cc3ccccc3F)n2)n1` [Compound I-573] was 0.101 to 1 µM.
On the same count and under the same terms, the value for `O=C(Nc1ccnc(-c2cc(-c3ccon3)n(Cc3ccccc3F)n2)n1)C1CCOCC1` [Compound I-574] was 0.101 to 1 µM; that for `O=C1O[C@@H](CO)CN1c1nc(-c2cc(-c3ccon3)n(Cc3ccccc3F)n2)ncc1F` [Compound I-575] was under 0.1 µM; that for `C[C@H](O)C(=O)Nc1ccnc(-c2cc(-c3ccon3)n(Cc3ccccc3F)n2)n1` [Compound I-576] was 0.101 to 1 µM.
On the same count and under the same terms, the value for `O=C(Nc1ccnc(-c2cc(-c3ccon3)n(Cc3ccccc3F)n2)n1)c1ccccc1O` [Compound I-577] was 0.101 to 1 µM; that for `Fc1ccccc1Cn1nc(-c2ncc(F)c(NC3CCOC3)n2)cc1-c1ccon1` (stereo not shown) [Compound I-578] was under 0.1 µM; that for `N#CCC(=O)Nc1ccnc(-c2cc(-c3ccon3)n(Cc3ccccc3F)n2)n1` [Compound I-579] was over 1 µM.
On to `CC(C)(C(=O)Nc1ccnc(-c2cc(-c3ccon3)n(Cc3ccccc3F)n2)n1)S(C)(=O)=O` [Compound I-580], for which the EC50 is 0.101 to 1 µM.
On the same count and under the same terms, the value for `NC(=O)CCNc1nc(-c2cc(-c3ccon3)n(Cc3ccccc3F)n2)ncc1F` [Compound I-581] was under 0.1 µM; that for `CC(C)(C(=O)Nc1nc(-c2cc(-c3ccon3)n(Cc3ccccc3F)n2)ncc1F)S(C)(=O)=O` [Compound I-582] was over 1 µM.
On the same count and under the same terms, the value for `O=C(Nc1ccccc1)Nc1ccnc(-c2cc(-c3ccon3)n(Cc3ccccc3F)n2)n1` [Compound I-583] was over 1 µM; that for `NC(=O)NCC(=O)Nc1ccnc(-c2cc(-c3ccon3)n(Cc3ccccc3F)n2)n1` [Compound I-584] was over 1 µM; that for `CC(C)NC(=O)NCC(=O)Nc1ccnc(-c2cc(-c3ccon3)n(Cc3ccccc3F)n2)n1` [Compound I-585] was 0.101 to 1 µM.
Same read-out and setting: the value for `CN(C)S(=O)(=O)NCC(=O)Nc1ccnc(-c2cc(-c3ccon3)n(Cc3ccccc3F)n2)n1` [Compound I-586] was 0.101 to 1 µM.
For `CC(C(=O)Nc1ccnc(-c2cc(-c3ccon3)n(Cc3ccccc3F)n2)n1)S(C)(=O)=O` (stereo not shown) [Compound I-587], the EC50 is 0.101 to 1 µM.
For the compound `CS(=O)(=O)CCC(Nc1nc(-c2cc(-c3ccon3)n(Cc3ccccc3F)n2)ncc1F)C(F)(F)F` (stereo not shown) [Compound I-588], the 50% effective concentration (EC50) fell in the range of 0.101 to 1 µM.
The same measure, in the same setting: the value for `CC(C(=O)Nc1nc(-c2cc(-c3ccon3)n(Cc3ccccc3F)n2)ncc1F)S(C)(=O)=O` (stereo not shown) [Compound I-589] was 0.101 to 1 µM.
On to `NC(=O)C1CC(=O)N(c2nc(-c3cc(-c4ccon4)n(Cc4ccccc4F)n3)ncc2F)C1` (stereo not shown) [Compound I-590], for which the EC50 was over 1 µM.
